# Assay results from patent US4887995A, “Method of treating sickle cell anemia” (University of Pittsburgh, priority 1985, dated 1989).
# Experiments:
# [1] = tested on: erythrocyte membranes; experiment: transport across erythrocyte membranes; type: in vitro ADME
# [2] = tested on: sickle hemoglobin (HbS); experiment: solubility assay: ability of a compound to increase solubility of sickle hemoglobin; type: biochemical; conditions: low concentrations (5 mM.); the higher the ratio the higher the activity; compared with DiClBz and p-BrBz
# Text: In comparative tests which we reported in J. of Med. Chem., 1984, 27, 103-105, which is incorporated herein by reference, ethacrynic acid was compared with active agents (1) [(3,4-dichlorobenzyl)oxy]acetic acid (DiClBz2) and (2) [(p-bromobenzyl)oxy]acetic acid (p-BrBz). The solubility assay measures the ability of a compound to increase solubility of sickle hemoglobin (HbS). […] The higher the ratio the higher the activity of the compound.
# [3] = tested on: HbS; experiment: chromatographic separation for covalent binding to HbS
smiles,measurement,setting,value
C=C(CC)C(=O)c1ccc(OCC(=O)O)c(Cl)c1Cl [ethacrynic acid],ability to cross the red blood cell membrane and react with hemoglobin,[1],confirmed the ability of ethacrynic acid to cross the red blood cell membrane and react with hemoglobin
same,solubility ratio,[2],higher solubility ratio than DiClBz and p-BrBz
same,covalent binding between HbS and compound,[3],desired tight covalent binding between the HbS and ethacrynic acid had occurred
